Laboratory results published in PMC5760531, “Action Potential Recording and Pro-arrhythmia Risk Analysis in Human Ventricular Trabeculae” (Frontiers in Physiology, 2018).
Where “and” joins values, the source holds several entries; their conditions need not be identical. Identical values can stand only once.

Legend:
[1] = system: human ventricular trabeculae; design: method as in Page et al., 2016; details: 0.1 uM; ref Page et al., 2016; cited from earlier work
[2] = system: human ventricular trabeculae; assay: Action potential recording and pro-arrhythmic score analysis in human ventricular trabeculae (hVT);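 further: sharp microelectrode action potential recordings at 37°C in Tyrode-perfused trabeculae, 4 cumulative concentrations each applied 31 min, values averaged over last 30 APs, vehicle 0.1% DMSO as control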
[3] = human free (unbound) effective therapeutic plasma concentration used to calculate multiples; cited from earlier work
hERG = details: ref Rampe et al., 1998; Qu and Vargas, 2015; cited from earlier work
[4] = 1Hz, c1-c4: 1.5-, 5-, 15-, 150-FOLD free ETPC (0.002µM)
[5] = 2Hz, c1-c4: 1.5-, 5-, 15-, 150-FOLD free ETPC (0.002µM)
[6] = average raw data, 1Hz, c2-c5: 1.5-, 5-, 15-, 150-FOLD free ETPC (0.002µM)
[7] = average raw data, 2Hz, c2-c5: 1.5-, 5-, 15-, 150-FOLD free ETPC (0.002µM)
[8] = 1Hz, 1.5-FOLD free ETPC (0.002µM)
[9] = 1Hz, 15-FOLD free ETPC (0.002µM)
[10] = 1Hz, 150-FOLD free ETPC (0.002µM)
[11] = 1Hz, 1500-FOLD free ETPC (0.002µM)
[12] = 2Hz, 1.5-FOLD free ETPC (0.002µM)
[13] = 2Hz, 15-FOLD free ETPC (0.002µM)
[14] = 2Hz, 150-FOLD free ETPC (0.002µM)
[15] = 2Hz, 1500-FOLD free ETPC (0.002µM)
[16] = average raw data, 1Hz, c2-c5: 1.5-, 15-, 150-, 1500-FOLD free ETPC (0.002µM)

Structure (SMILES): CN(CCOc1ccc(NS(C)(=O)=O)cc1)CCc1ccc(NS(C)(=O)=O)cc1 [DOFETILIDE, Dofetilide]
- APD90 prolongation [1]: ~ 100%
- EAD ([2]; 0.003, 0.01, 0.03, and 0.3 μM, total of 4 trabeculae): without any EAD
- Beat Escape incidence [2, 4]: 0%
- EADs incidence [2, 4]: 0%
- Refractoriness Escape incidence [2, 4]: 0%
- EADs incidence [2, 5]: 0%
- Refractoriness Escape incidence [2, 5]: 0%
- AMAX [2, 6]: 106 mV and 107 mV
- APD90 [2, 6]: 274 ms and 303 ms and 385 ms and 510 ms
- Beat Escape [2, 6]: 0
- EADs [2, 6]: 0
- ERP [2, 6]: 0.43 and 0.47 and 0.52 and 0.59
- Refractoriness Escape [2, 6]: 0
- AMAX [2, 7]: 102 mV and 100 mV and 101 mV
- APD90 [2, 7]: 216 ms and 251 ms and 296 ms and 411 ms
- EADs [2, 7]: 0
- ERP [2, 7]: 0.44 and 0.49 and 0.52 and 0.56
- Refractoriness Escape [2, 7]: 0

Structure (SMILES): O=C1NCCN1CCN1CCC(c2cn(-c3ccc(F)cc3)c3ccc(Cl)cc23)CC1 [SERTINDOLE, Sertindole]
- Free ETPC [3]: 0.002 µM
- hERG IC50 (hERG): sub-micromolar
- AMAX percentage change compared to vehicle control [2, 8]: 5%
- APD30 percentage change compared to vehicle control [2, 8]: 6%
- APD50 percentage change compared to vehicle control [2, 8]: 6%
- APD90 percentage change compared to vehicle control [2, 8]: 5%
- Alternans percentage change compared to vehicle control [2, 8]: 54%
- Beat Escape percentage change compared to vehicle control [2, 8]: 0%
- EADs percentage change compared to vehicle control [2, 8]: 0%
- ERP percentage change compared to vehicle control [2, 8]: 1%
- Max Dispersion percentage change compared to vehicle control [2, 8]: -15%
- RMP percentage change compared to vehicle control [2, 8]: 1%
- Refractoriness Escape percentage change compared to vehicle control [2, 8]: 0%
- STV percentage change compared to vehicle control [2, 8]: 31%
- Triangulation percentage change compared to vehicle control [2, 8]: 4%
- AMAX percentage change compared to vehicle control [2, 9]: 5%
- APD30 percentage change compared to vehicle control [2, 9]: -1%
- APD50 percentage change compared to vehicle control [2, 9]: 0%
- APD90 percentage change compared to vehicle control [2, 9]: 0%
- Alternans percentage change compared to vehicle control [2, 9]: -5%
- Beat Escape percentage change compared to vehicle control [2, 9]: 0%
- EADs percentage change compared to vehicle control [2, 9]: 0%
- ERP percentage change compared to vehicle control [2, 9]: 3%
- Max Dispersion percentage change compared to vehicle control [2, 9]: -35%
- RMP percentage change compared to vehicle control [2, 9]: 3%
- Refractoriness Escape percentage change compared to vehicle control [2, 9]: 0%
- STV percentage change compared to vehicle control [2, 9]: 0%
- Triangulation percentage change compared to vehicle control [2, 9]: 3%
- AMAX percentage change compared to vehicle control [2, 10]: 5%
- APD30 percentage change compared to vehicle control [2, 10]: 4%
- APD50 percentage change compared to vehicle control [2, 10]: 6%
- APD90 percentage change compared to vehicle control [2, 10]: 7%
- Alternans percentage change compared to vehicle control [2, 10]: 31%
- Beat Escape percentage change compared to vehicle control [2, 10]: 0%
- EADs percentage change compared to vehicle control [2, 10]: 0%
- ERP percentage change compared to vehicle control [2, 10]: 7%
- Max Dispersion percentage change compared to vehicle control [2, 10]: -3%
- RMP percentage change compared to vehicle control [2, 10]: 2%
- Refractoriness Escape percentage change compared to vehicle control [2, 10]: 0%
- STV percentage change compared to vehicle control [2, 10]: 23%
- Triangulation percentage change compared to vehicle control [2, 10]: 12%
- AMAX percentage change compared to vehicle control [2, 11]: 4%
- APD30 percentage change compared to vehicle control [2, 11]: 1%
- APD50 percentage change compared to vehicle control [2, 11]: 6%
- APD90 percentage change compared to vehicle control [2, 11]: 8%
- Alternans percentage change compared to vehicle control [2, 11]: -12%
- Beat Escape percentage change compared to vehicle control [2, 11]: 0%
- EADs percentage change compared to vehicle control [2, 11]: 0%
- ERP percentage change compared to vehicle control [2, 11]: 13%
- Max Dispersion percentage change compared to vehicle control [2, 11]: -30%
- RMP percentage change compared to vehicle control [2, 11]: 3%
- Refractoriness Escape percentage change compared to vehicle control [2, 11]: 0%
- STV percentage change compared to vehicle control [2, 11]: -24%
- Triangulation percentage change compared to vehicle control [2, 11]: 19%
- AMAX [2, 12]: 109
- AMAX percentage change compared to vehicle control [2, 12]: 3%
- APD30 [2, 12]: 104
- APD30 percentage change compared to vehicle control [2, 12]: -1%
- APD50 [2, 12]: 139
- APD50 percentage change compared to vehicle control [2, 12]: 0%
- APD90 [2, 12]: 197
- APD90 percentage change compared to vehicle control [2, 12]: 0%
- Alternans [2, 12]: 1.61
- Alternans percentage change compared to vehicle control [2, 12]: 93%
- Beat Escape [2, 12]: 0
- Beat Escape percentage change compared to vehicle control [2, 12]: 0%
- EADs [2, 12]: 0
- EADs percentage change compared to vehicle control [2, 12]: 0%
- ERP [2, 12]: 0.43
- ERP percentage change compared to vehicle control [2, 12]: 2%
- Max Dispersion [2, 12]: 4.87
- Max Dispersion percentage change compared to vehicle control [2, 12]: 7%
- RMP [2, 12]: -85
- RMP percentage change compared to vehicle control [2, 12]: 1%
- Refractoriness Escape [2, 12]: 0
- Refractoriness Escape percentage change compared to vehicle control [2, 12]: 0%
- STV [2, 12]: 1.20
- Triangulation [2, 12]: 93
- Triangulation percentage change compared to vehicle control [2, 12]: 1%
- AMAX [2, 13]: 110
- AMAX percentage change compared to vehicle control [2, 13]: 4%
- APD30 [2, 13]: 104
- APD30 percentage change compared to vehicle control [2, 13]: -1%
- APD50 [2, 13]: 139
- APD50 percentage change compared to vehicle control [2, 13]: 0%
- APD90 [2, 13]: 199
- APD90 percentage change compared to vehicle control [2, 13]: 1%
- Alternans [2, 13]: 0.69
- Alternans percentage change compared to vehicle control [2, 13]: -17%
- Beat Escape [2, 13]: 0
- Beat Escape percentage change compared to vehicle control [2, 13]: 0%
- EADs [2, 13]: 0
- EADs percentage change compared to vehicle control [2, 13]: 0%
- ERP [2, 13]: 0.44
- ERP percentage change compared to vehicle control [2, 13]: 4%
- Max Dispersion [2, 13]: 3.50
- Max Dispersion percentage change compared to vehicle control [2, 13]: -23%
- RMP [2, 13]: -87
- RMP percentage change compared to vehicle control [2, 13]: 3%
- Refractoriness Escape [2, 13]: 0
- Refractoriness Escape percentage change compared to vehicle control [2, 13]: 0%
- STV [2, 13]: 0.48
- Triangulation [2, 13]: 95
- Triangulation percentage change compared to vehicle control [2, 13]: 3%
- AMAX [2, 14]: 110
- AMAX percentage change compared to vehicle control [2, 14]: 5%
- APD30 [2, 14]: 112
- APD30 percentage change compared to vehicle control [2, 14]: 6%
- APD50 [2, 14]: 150
- APD50 percentage change compared to vehicle control [2, 14]: 8%
- APD90 [2, 14]: 214
- APD90 percentage change compared to vehicle control [2, 14]: 9%
- Alternans percentage change compared to vehicle control [2, 14]: 30%
- Beat Escape [2, 14]: 0
- Beat Escape percentage change compared to vehicle control [2, 14]: 0%
- EADs [2, 14]: 0
- EADs percentage change compared to vehicle control [2, 14]: 0%
- ERP [2, 14]: 0.45
- ERP percentage change compared to vehicle control [2, 14]: 7%
- Max Dispersion [2, 14]: 3.78
- Max Dispersion percentage change compared to vehicle control [2, 14]: -17%
- RMP [2, 14]: -87
- RMP percentage change compared to vehicle control [2, 14]: 3%
- Refractoriness Escape [2, 14]: 0
- Refractoriness Escape percentage change compared to vehicle control [2, 14]: 0%
- STV [2, 14]: 0.78
- Triangulation [2, 14]: 103
- Triangulation percentage change compared to vehicle control [2, 14]: 12%
- AMAX [2, 15]: 110
- AMAX percentage change compared to vehicle control [2, 15]: 4%
- APD30 [2, 15]: 107
- APD30 percentage change compared to vehicle control [2, 15]: 1%
- APD50 [2, 15]: 150
- APD50 percentage change compared to vehicle control [2, 15]: 8%
- APD90 [2, 15]: 221
- APD90 percentage change compared to vehicle control [2, 15]: 12%
- Alternans [2, 15]: 0.59
- Alternans percentage change compared to vehicle control [2, 15]: -29%
- Beat Escape [2, 15]: 0
- Beat Escape percentage change compared to vehicle control [2, 15]: 0%
- EADs [2, 15]: 0
- EADs percentage change compared to vehicle control [2, 15]: 0%
- ERP [2, 15]: 0.48
- ERP percentage change compared to vehicle control [2, 15]: 13%
- Max Dispersion [2, 15]: 2.80
- Max Dispersion percentage change compared to vehicle control [2, 15]: -39%
- RMP [2, 15]: -87
- RMP percentage change compared to vehicle control [2, 15]: 3%
- Refractoriness Escape [2, 15]: 0
- Refractoriness Escape percentage change compared to vehicle control [2, 15]: 0%
- STV [2, 15]: 0.42
- Triangulation [2, 15]: 114
- Triangulation percentage change compared to vehicle control [2, 15]: 23%
- TdP identification by pro-arrhythmic score ([2]; at 10-fold human free ETPC, score >10 unsafe, <10 safe): TdP negative
- AMAX [2, 16]: 112 mV and 111 mV
- APD30 [2, 16]: 159 ms and 150 ms and 158 ms and 153 ms
- APD50 [2, 16]: 205 ms and 195 ms and 207 ms and 206 ms
- APD90 [2, 16]: 272 ms and 261 ms and 279 ms and 282 ms
- Alternans [2, 16]: 0.83 and 0.51 and 0.71 and 0.47
- Beat Escape [2, 16]: 0
- EADs [2, 16]: 0
- ERP [2, 16]: 0.41 and 0.42 and 0.44 and 0.46
- Max Dispersion [2, 16]: 3.13 and 2.38 and 3.55 and 2.58
- Refractoriness Escape [2, 16]: 0
- STV [2, 16]: 0.54 and 0.39 and 0.47 and 0.31
- Triangulation [2, 16]: 113 and 111 and 121 and 129
